From paper PMC9274761, “Effects of Structurally Different HDAC Inhibitors against Trypanosoma cruzi, Leishmania, and Schistosoma mansoni” (ACS Infectious Diseases, 2022)
Where “and” joins values, the source holds several entries; their conditions need not be identical. Equal values may be shown once.

Legend:
[1] = test system: newly transformed schistosomula (NTS); experiment: Phenotypic screening on newly transformed schistosomula (NTS); assay type: cell-based, Schistosoma mansoni; conditions: for IC50: Schistosoma mansoni, 72 h, read-out: IC50, viability of NTS
[2] = target: T1, HDAC8 (Homo sapiens, UniProt Q9BY41); experiment: HDAC8 protease-coupled fluorescence (AMC) inhibition assay; assay type: biochemical; conditions: hr enzyme, substrate RHK(Ac)K(Ac)AMC; read-out: IC50 against HDAC8
T1 sequence (Q9BY41 1-377): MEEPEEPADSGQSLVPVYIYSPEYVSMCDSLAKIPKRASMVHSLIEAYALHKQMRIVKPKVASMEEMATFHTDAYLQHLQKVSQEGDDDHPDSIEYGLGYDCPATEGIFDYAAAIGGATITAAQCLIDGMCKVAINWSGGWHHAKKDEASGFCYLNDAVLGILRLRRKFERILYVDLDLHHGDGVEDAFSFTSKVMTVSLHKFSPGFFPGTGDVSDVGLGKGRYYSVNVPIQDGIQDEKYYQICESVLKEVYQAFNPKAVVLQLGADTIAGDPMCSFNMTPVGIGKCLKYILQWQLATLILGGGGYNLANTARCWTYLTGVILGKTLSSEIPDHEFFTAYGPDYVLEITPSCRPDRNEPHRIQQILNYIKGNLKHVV
From the text: (§1) The new hydroxamates 2 and 6 were screened and profiled via a protease-coupled assay in which the quantification of HDAC enzyme activity is based on the formation of a free fluorescent group, the 7-amino-4-methyl coumarin (AMC).[42] […] After deacetylation by HDACs, the de(trifluoro)acetylated AMC–peptides were sensitive toward lysine peptidase and free fluorogenic AMC was generated and quantified.[42]
(§2) To gain insights into its inhibition profile for human HDACs, we tested 3 against hrHDACs 1–6 and 8 following the above procedure (Table 1).
(§3) Individual IC50 values for each HDAC isozyme were measured with the homogeneous fluorescence release HDAC assay.[42]

[3] = target: HDAC2 (Homo sapiens, UniProt Q92769); experiment: HDAC2 protease-coupled fluorescence (AMC) inhibition assay; assay type: biochemical; conditions: hr enzyme, 10-dose, 3-fold dilution from 50 μM (3: from 300 μM); read-out: IC50 against HDAC2
Sequence of HDAC2 (Q92769 whole entry): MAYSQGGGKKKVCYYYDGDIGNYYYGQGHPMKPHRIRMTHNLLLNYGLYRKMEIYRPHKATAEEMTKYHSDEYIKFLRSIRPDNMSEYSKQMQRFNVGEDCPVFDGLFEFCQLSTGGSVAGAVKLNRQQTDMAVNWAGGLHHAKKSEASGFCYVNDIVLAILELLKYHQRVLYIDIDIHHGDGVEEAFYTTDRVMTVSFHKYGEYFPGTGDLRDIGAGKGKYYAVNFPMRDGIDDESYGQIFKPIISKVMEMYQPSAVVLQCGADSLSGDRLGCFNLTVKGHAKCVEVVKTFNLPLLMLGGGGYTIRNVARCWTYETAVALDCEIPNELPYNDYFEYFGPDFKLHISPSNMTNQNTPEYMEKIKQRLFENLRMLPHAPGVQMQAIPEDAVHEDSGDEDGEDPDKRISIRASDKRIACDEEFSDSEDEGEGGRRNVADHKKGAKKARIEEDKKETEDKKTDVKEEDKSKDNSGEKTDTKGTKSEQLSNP
From the text: as §1, §2, §3

For `CN(C)Cc1ccc(S(=O)(=O)n2ccc3cc(/C=C/C(=O)NO)ccc32)cc1` [Compound 6, 3-(1-((4-((Dimethylamino)methyl)phenyl)sulfonyl)-1H-indol-5-yl)-N-hydroxy Acrylamide], the “percentage of NTS activity, 72 h” value ([1]; 10 μM) was 20.9 ± 0.9%, the “percentage of NTS activity, 72 h” value ([1]; 20 μM) was 22.8 ± 1.0% and the IC50 [1] was > 20 µM. The IC50 [2] was 1.87 µM and the IC50 [3] was 3.49 µM.

`O=C(/C=C/c1ccc(CSc2nc(Cl)cc(-c3ccccc3)n2)cc1)NO` [Compound 2, 3-(4-(((4-Chloro-6-phenylpyrimidin-2-yl)thio)methyl)phenyl)-N-hydroxy Acrylamide] was tested, and the “percentage of NTS activity, 72 h” value ([1]; 10 μM) was 39.7 ± 0.9%, the “percentage of NTS activity, 72 h” value ([1]; 20 μM) was 70% and 67.31 ± 2.9% and the IC50 [1] was 12.9 µM. For the same molecule, the IC50 [2] was 2.22 µM and the IC50 [3] was 4.11 µM.
